US20080085893A1, “MATRIX METALLOPROTEASE INHIBITORS” (priority 2006, published 2008)
“And” between values parts separate entries of the source, which are not always exact repeats. Equal entries are not always repeated.

Key:
Format in all cases: biochemical
[1] = target: T1, human MMP-9 (amino acids 107-446) (Homo sapiens, UniProt P14780); assay: MMP dose response assay for determining IC50, MMP-9; details: recombinant enzyme, fluorescent-quench substrate 100 nM; read-out: MMP-9
T1 construct: human MMP-9 (amino acids 107-446); made in house
Method in brief: (§1)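 Recombinant enzymes in 50 mM HEPES pH 7.4, 10 mM CaCl2, 0.05% Brij-35, at empirically set levels keeping activity linear, preincubated 1 h at room temperature with compound in triplicate. Fluorescence-quench peptide substrate (Eu/QSY7) added at 100 nM final. Background-subtracted signal expressed as percent of DMSO control for IC50.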

[2] = target: T2, human MMP-3 (amino acids 100-265) (Homo sapiens, UniProt P08254); assay: MMP dose response assay for determining IC50, MMP-3; details: recombinant enzyme, fluorescent-quench substrate 100 nM
T2 construct: human MMP-3 (amino acids 100-265); made in house
Protocol: (§2) MMP Dose Response Assay for Determining IC50
(§3) The following method was used for determining IC50 values of different inhibitor compounds against multiple MMP enzymes. Frozen stocks of recombinantly produced MMPs were prepared in assay buffer (50 mM HEPES pH 7.4, 10 mM CaCl2, 0.05% Brij-35). The following domains were used to produce catalytically active version of the indicated MMP enzymes, human MMP-1 (amino acids 100-262), human MMP-2 (amino acids 1-660), human MMP-3 (amino acids 100-265), human MMP-9 (amino acids 107-446), human MMP-13 (amino acids 103-268), and rat MMP-9 (amino acids 108-446). Enzyme concentrations in the assay were determined empirically and set such that proteolytic activity was maintained in a linear range over the time-course of the experiment. Diluted enzymes were mixed with various test compounds that had been pre-diluted into assay buffer to establish concentration curves ranging from 10^−5 M to 10^−12 M. Compounds were diluted into assay buffer that contained an appropriate concentration of DMSO to maintain this at a constant in all wells. Each concentration for each test compound was tested in triplicate. MMP enzymes were equilibrated with compounds for 1 hour at room temperature, then a fluorescent-quench substrate (Acetyl-Cys(Eu)-Pro-Leu-Gly-Leu-Lys-(QSY7)-Ala-Arg-amide) was added to a final concentration of 100 nM. Following a 15 minute room temperature incubation, the assay plate was read on an EnVision plate reader using the following parameters: excitation wavelength 340 nM, emission wavelength 615 nM, number of flashes 100, delay before reading 300 milliseconds. Data was analyzed by first calculating average background value from wells that contained only substrate, and this value was subtracted from the entire plate. The 100%, or maximum value, was determined by averaging control wells that contained enzyme, substrate and DMSO. For each well, the percent of control was calculated by dividing the well value by the average DMSO value obtained above.
(§4) Additionally, compounds 27, 3, 65, 66, and 97 were tested in vitro for MMP-3, MMP-9 (rat), and MMP-13 antagonism.

[3] = target: T3, human MMP-13 (amino acids 103-268) (Homo sapiens, UniProt P45452); assay: MMP dose response assay for determining IC50, MMP-13; details: recombinant enzyme, fluorescent-quench substrate 100 nM
T3 construct: human MMP-13 (amino acids 103-268); made in house
Protocol: as §2, §3, §4

[4] = target: T4, human MMP-1 (amino acids 100-262) (Homo sapiens, UniProt P03956); assay: MMP dose response assay for determining IC50, MMP-1; details: recombinant catalytic domain, fluorescent-quench substrate 100 nM
T4 construct: human MMP-1 (amino acids 100-262); made in house
T4 sequence (P03956 100-262): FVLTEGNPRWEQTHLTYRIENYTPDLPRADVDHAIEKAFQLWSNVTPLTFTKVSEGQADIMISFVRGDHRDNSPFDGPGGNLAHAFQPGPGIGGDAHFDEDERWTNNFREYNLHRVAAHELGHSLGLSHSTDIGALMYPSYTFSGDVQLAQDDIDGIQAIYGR
Method in brief: as §1

[5] = target: T5, human MMP-2 (amino acids 1-660) (Homo sapiens, UniProt P08253); assay: MMP dose response assay for determining IC50, MMP-2; details: recombinant enzyme, fluorescent-quench substrate 100 nM; read-out: MMP-2
T5 construct: human MMP-2 (amino acids 1-660); made in house
T5 sequence (P08253 110-660): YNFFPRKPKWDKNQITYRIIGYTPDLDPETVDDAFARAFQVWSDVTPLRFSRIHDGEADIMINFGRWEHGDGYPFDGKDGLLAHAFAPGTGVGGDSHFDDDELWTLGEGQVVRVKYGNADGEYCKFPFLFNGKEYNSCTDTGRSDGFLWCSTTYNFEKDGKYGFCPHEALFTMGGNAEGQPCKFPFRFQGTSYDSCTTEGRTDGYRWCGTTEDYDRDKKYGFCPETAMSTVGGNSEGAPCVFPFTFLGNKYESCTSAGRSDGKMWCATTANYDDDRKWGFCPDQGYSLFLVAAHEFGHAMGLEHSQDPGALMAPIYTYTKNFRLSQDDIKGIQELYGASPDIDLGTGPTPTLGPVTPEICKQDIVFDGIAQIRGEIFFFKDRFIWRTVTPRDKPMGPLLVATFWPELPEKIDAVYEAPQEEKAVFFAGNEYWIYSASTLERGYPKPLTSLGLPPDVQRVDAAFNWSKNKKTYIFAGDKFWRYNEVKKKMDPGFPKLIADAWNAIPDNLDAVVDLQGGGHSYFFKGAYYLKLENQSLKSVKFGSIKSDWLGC
Method in brief: as §1

[6] = target: T6, rat MMP-9 (amino acids 108-446) (Rattus norvegicus, UniProt P50282); assay: MMP dose response assay for determining IC50, rat MMP-9; details: rat enzyme
T6 construct: rat MMP-9 (amino acids 108-446); made in house
Protocol: as §2
as §3, with “Diluted enzymes were mixed with various test compounds that had been pre-diluted into assay buffer to establish concentration curves ranging from 10^−5 M to 10^−12 M. Compounds were diluted into assay buffer that contained an appropriate concentration of DMSO to maintain this at a constant in all wells. Each concentration for each test compound was tested in triplicate. MMP enzymes were equilibrated with compounds for 1 hour at room temperature, then a fluorescent-quench substrate (Acetyl-Cys(Eu)-Pro-Leu-Gly-Leu-Lys-(QSY7)-Ala-Arg-amide) was added to a final concentration of 100 nM.” left out, “For each well, the percent of control was calculated by dividing the well value by the average DMSO value obtained above.” left out

T2 sequence (P08254 100-265): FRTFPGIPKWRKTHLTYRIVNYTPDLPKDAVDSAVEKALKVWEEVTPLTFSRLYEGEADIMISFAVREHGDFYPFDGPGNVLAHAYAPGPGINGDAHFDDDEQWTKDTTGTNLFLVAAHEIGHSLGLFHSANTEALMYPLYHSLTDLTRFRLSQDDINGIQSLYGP
T1 sequence (P14780 107-446): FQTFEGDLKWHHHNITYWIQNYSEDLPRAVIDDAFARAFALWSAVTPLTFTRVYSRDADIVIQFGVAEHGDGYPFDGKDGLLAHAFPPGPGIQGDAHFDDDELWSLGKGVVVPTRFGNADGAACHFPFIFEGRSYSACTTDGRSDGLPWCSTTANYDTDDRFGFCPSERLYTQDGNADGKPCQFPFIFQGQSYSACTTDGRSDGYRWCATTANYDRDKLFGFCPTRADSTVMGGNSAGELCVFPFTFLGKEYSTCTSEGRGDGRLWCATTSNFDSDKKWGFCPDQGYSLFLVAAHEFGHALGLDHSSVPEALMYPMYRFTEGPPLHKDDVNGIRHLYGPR
T6 sequence (P50282 108-446): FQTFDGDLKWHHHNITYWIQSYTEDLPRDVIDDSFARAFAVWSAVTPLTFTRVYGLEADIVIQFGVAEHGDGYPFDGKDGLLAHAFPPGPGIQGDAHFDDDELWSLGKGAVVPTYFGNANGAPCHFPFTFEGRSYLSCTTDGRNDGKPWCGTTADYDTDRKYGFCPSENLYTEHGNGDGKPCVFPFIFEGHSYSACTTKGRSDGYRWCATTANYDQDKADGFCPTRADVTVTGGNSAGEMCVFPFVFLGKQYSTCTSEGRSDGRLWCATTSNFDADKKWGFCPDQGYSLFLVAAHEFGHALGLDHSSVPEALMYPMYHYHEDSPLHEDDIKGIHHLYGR

Row | Structure (SMILES) | IC50 [1] | IC50 [2] | IC50 [3] | IC50 [4] [nM] | IC50 [5] | IC50 [6] [nM]
1 | CS(=O)(=O)N(C[C@@H](C(=O)NO)N1CCOCC1)c1ccc(Oc2ccc(C(F)(F)F)cc2)cc1 [Example 3, N-Hydroxy (2S)-2-(morpholin-4-yl)-3-{N-[4-(4-trifluoromethylphenoxy)phenyl],N-methanesulfonylamino}propionamide] | 4.06 nM and 3.53 nM and 2.37 nM and 2.76 nM and 7.64 nM and 2.89 nM and 2.08 nM and 2.79 nM and 18.4 nM and 7.46 nM | 63.7 nM and 105 nM | 30.5 nM and 56.1 nM |  |  | 
2 | Cc1ccc(Oc2ccc(N(C[C@@H](C(=O)NO)N3CCOCC3)S(C)(=O)=O)cc2)cc1 [Example 27, N-Hydroxy (2S)-3-{N-[4-(4-methylphenoxy)phenyl],N-methanesulfonylamino}-2-(morpholin-4-yl)propionamide] | 1.52 nM and 2.56 nM and 0.93 nM and 4.05 nM and 2.49 nM | 136 nM | 3.53 nM | > 10000 | 3.21 nM and 4.98 nM and 4.19 nM and 10.7 nM and 8.28 nM | 25.8
3 | Cc1ccc(Oc2ccc(N(C[C@@H](C(=O)NO)N3CCC(O)(c4ccc(Br)cc4)CC3)S(C)(=O)=O)cc2)cc1 [Example 65, N-Hydroxy (2S)-2-[4-(4-bromophenyl)-4-hydroxypiperidin-1-yl]-3-{N-[4-(4-methylphenoxy)phenyl],N-methanesulfonylamino}propionamide] | 0.65 nM | 492 nM | 411 nM | > 10000 | 0.37 nM | 
4 | Cc1ccc(Oc2ccc(N(C[C@H](NCCc3c[nH]c4ccccc34)C(=O)NO)S(C)(=O)=O)cc2)cc1 [Example 66] | 2.88 nM | 822 nM | 847 nM | > 10000 | 41.2 nM | 
5 | CS(=O)(=O)N1CCN([C@@H](CN(c2ccc(Oc3ccc(C(F)(F)F)cc3)cc2)S(C)(=O)=O)C(=O)NO)CC1 [Example 83, N-Hydroxy (2S)-2-(4-methanesulfonylpiperazin-1-yl)-3-{N-[4-(4-trifluoromethylphenoxy)phenyl],N-methanesulfonylamino}propionamide] | 1.94 nM and 4.5 nM |  |  | > 10000 | 6.21 nM and 13.5 nM | 
6 | CC(=O)N1CCN([C@@H](CN(c2ccc(Oc3ccc(C(F)(F)F)cc3)cc2)S(C)(=O)=O)C(=O)NO)CC1 [Example 84, N-Hydroxy (2S)-2-(4-acetylpiperazin-1-yl)-3-{N-[4-(4-trifluoromethylphenoxy)phenyl],N-methanesulfonylamino}propionamide] | 4.81 nM |  |  | > 10000 | 8.55 nM | 
7 | C[C@@H]1CN([C@@H](CN(c2ccc(Oc3ccc(C(F)(F)F)cc3)cc2)S(C)(=O)=O)C(=O)NO)C[C@H](C)O1 [Example 86, N-Hydroxy (2S)-2-(cis-2,6-dimethylmorpholin-4-yl)-3-{N-[4-(4-trifluoromethylphenoxy)phenyl],N-methanesulfonylamino}propionamide] | 0.48 nM and 0.86 nM and 2.08 nM and 2.71 nM and 0.35 nM |  |  | 8040 | 2.69 nM and 4.57 nM and 9.44 nM and 8.32 nM and 3.04 nM | 
8 | CS(=O)(=O)N(C[C@@H](C(=O)NO)N1CCNC(=O)C1)c1ccc(Oc2ccc(C(F)(F)F)cc2)cc1 [Example 87, N-Hydroxy (2S)-2-(3-oxopiperazin-1-yl)-3-{N-[4-(4-trifluoromethylphenoxy)phenyl],N-methanesulfonylamino}propionamide] | 7.94 nM |  |  | > 10000 | 19.8 nM | 
9 | CC(C)N(C)[C@@H](CN(c1ccc(Oc2ccc(C(F)(F)F)cc2)cc1)S(C)(=O)=O)C(=O)NO [Example 97, N-Hydroxy (2S)-2-[N-methyl,N-(2-prolyl)amino]-3-{N-[4-(4-trifluoromethylphenoxy)phenyl],N-methanesulfonylamino}propionamide] | 5.48 nM and 12.2 nM | 218 nM | 12.4 nM |  | 17.4 nM and 29.9 nM | 175
